{"source": "patent US10159254B2", "about": "“Weed control methods” (Syngenta Participations AG, priority 2013, dated 2018)", "key": {"[1]": {"system": "Velvetleaf (Abutilon theophrasti)", "assay": "Greenhouse weed control: HPPD inhibitors with or without Sequestrene 138Fe, velvetleaf", "assay_type": "in vivo", "conditions": "percent velvetleaf control 19 DAT", "description": "Effect of Tank Mix Applications of HPPD Inhibitors and Sequestrene® 138Fe on Velvetleaf Control. Percent Control Assessed 19 DAT\n(§1) A greenhouse experiment is conducted to determine the effect of chelated iron on weed control in the greenhouse. Velvetleaf (Abutilon theophrasti) and common waterhemp (Amaranthus rudis) plants are grown in 4×4-inch pots filled with a greenhouse potting mix. When the plants reached the 2 to 3 inch height (2 to 3 leaf stage), they are sprayed with a reduced rate of an HPPD inhibitor alone or in a tank mix combination with Sequestrene 138Fe at 140 g/ha (equivalent to 8.4 g iron/hectare) or 280 g/ha (equivalent to 16.8 g iron/hectare). […] Observations on percent control are recorded 12, 19, and 25 days after treatment."}, "[2]": {"system": "common waterhemp (Amaranthus rudis)", "assay": "Greenhouse weed control: HPPD inhibitors with or without Sequestrene 138Fe, common waterhemp", "assay_type": "in vivo", "conditions": "common waterhemp control 17 DAT", "description": "as §1\nEffect of Tank Mix Applications of Various HPPD Inhibitors and Sequestrene 138Fe on Common Waterhemp Control. Injury Assessed 17 DAT\nAn experiment is performed to look at the effect of applying iron chelates on control of Common Waterhemp using HPPD-inhibiting herbicides. Experiment design is analogous to that outlined in Experiment 3 above."}, "SYHT0H2 soybeans [3]": {"system": "SYHT0H2 soybeans", "assay": "Greenhouse: Sequestrene 138Fe rate series, percent injury from HPPD-inhibitors at 7 DAT", "assay_type": "in vivo, soybean", "conditions": "mesotrione 420, bicyclopyrone 200, tembotrione 368, topramezone 72 g/ha", "description": "Effect of Sequestrene® 138Fe on Percent Injury from Various HPPD-inhibitors on SYHT0H2 Soybeans. Injury Assessed at Seven Days after Treatment (7 DAT)\nSYHT0H2 soybeans are grown in 4×4-inch pots filled with a greenhouse potting mix. When the plants reach the V2-V3 growth stage, they are treated with an HPPD inhibitor applied alone or in a tank mixture with Sequestrene 138Fe at various rates ranging from 140 g product/ha (equivalent to 8.4 g iron/ha) to 2240 g product/ha (equivalent to 134 g iron/ha)."}, "SYHT04R soybeans": {"system": "SYHT04R soybeans", "assay": "Greenhouse: Sequestrene 138Fe safening of HPPD-inhibitors, injury 6 days after treatment", "assay_type": "in vivo, soybean", "conditions": "6 days after treatment (maximum injury), mesotrione 420, bicyclopyrone 200, isoxaflutole 280 g/ha", "description": "Effect of Sequestrene® 138Fe on Various HPPD-inhibitors in SYHT04R Soybeans. Maximum Injury Assessed 6 Days after Treatment\nA greenhouse experiment is conducted to determine if Sequestrene® 138Fe was effective in safening various other HPPD herbicide-tolerant soybean events, such as SYHT04R.\nSYHT04R soybean plants are grown in 4×4-inch pots filled with a greenhouse potting mix. When the plants reached the V2-V3 growth stage, they are sprayed with an HPPD inhibitor alone or in combination with Sequestrene® 138Fe at 1120 g/ha (equivalent to 67.2 g iron/ha). […] Observations on percent injury are recorded at 6 and 20 days after treatment. Data presented is from the 6 days after treatment rating representing the maximum injury observed during the experiment."}, "SYHT0H2 soybeans [4]": {"system": "SYHT0H2 soybeans", "assay": "Greenhouse: water-soluble iron compounds safening mesotrione, maximum injury", "conditions": "mesotrione 420 g ai/ha, additive none; maximum injury of 6, 9, 16 days after treatment", "description": "An experiment is conducted to look at the safening effect of a variety of water-soluble iron-containing compounds. SYHT0H2 soybean plants are grown in small pots filled with a greenhouse potting mix. […] In all cases, mesotrione was applied at 420 g ai/ha and all treatments contained liquid ammonium sulphate at 2.5% v/v and NIS at 0.25% v/v. The application rates of iron-containing compounds indicated are iron equivalent rates. […] Percent injury levels were assessed 6, 9, and 16 days after treatment. Data presented are maximum injury occurring from any of the treatments at any time during the experiment."}, "[5]": {"system": "tobacco line overexpressing Avena HPPD", "assay": "Transgenic tobacco herbicide damage, mesotrione with or without Sequestrene 138", "assay_type": "in vivo, Nicotiana tabacum cv Samsun (tobacco)", "description": "(§2) Effect of Iron Chelates in Mitigating Foliar Bleaching Injury from HPPD Inhibiting Herbicides Across Various Transgenic HPPD Tolerant Tobacco Events Over-expressing HPPD Genes from Different Origins\n(§3) This experiment is carried out to determine whether iron chelates can mitigate the bleaching injury from HPPD inhibiting herbicides across various transgenic HPPD tolerant tobacco events over-expressing HPPD genes from different origins. These experiments are conducted using three distinct HPPD-overexpressing Nicotiana tabacum cv Samsun (tobacco) lines, one over-expressing wheat HPPD, one overexpressing an Avena HPPD and one over-expressing a HPPD from a bacterial source, Pseudomonas florescens. For each transgenic line, five identical clonal plants were sprayed with each herbicide treatment. Two untransformed clonal tobacco plants are also sprayed ([…]) with each herbicide treatment. Assessments are carried out 3, 7 and 14 days after herbicide application.\n(§4) All scores represent average % herbicide damage. […] An equivalent safening effect is not observed when the same chemical treatments are applied to wild type plants."}, "[6]": {"system": "tobacco line over-expressing HPPD from Pseudomonas florescens", "assay": "Transgenic tobacco herbicide damage, mesotrione with or without Sequestrene 138", "assay_type": "in vivo, Nicotiana tabacum cv Samsun (tobacco)", "description": "as §2, §3, §4"}, "[7]": {"system": "tobacco line over-expressing wheat HPPD", "assay": "Transgenic tobacco herbicide damage, mesotrione with or without Sequestrene 138", "assay_type": "in vivo, Nicotiana tabacum cv Samsun (tobacco)", "description": "as §2, §3, §4"}, "[8]": {"conditions": "Sequestrene 138Fe 0 g/ha, g ai/ha: mesotrione 26, isoxaflutole 26, bicyclopyrone 50, tembotrione 46, pyrasulfatole 22, topramezone 18"}, "[9]": {"conditions": "Sequestrene 138Fe 140 g/ha tank mix, mesotrione 26, isoxaflutole 26 g ai/ha"}}, "note": "Values joined by “and” are separate entries in the source; they are usually repeats but may differ in a detail not shown here. Equal values may be shown once."}
{"smiles": "CS(=O)(=O)c1ccc(C(=O)C2C(=O)CCCC2=O)c([N+](=O)[O-])c1", "note": "[Mesotrione, mesotrione]", "values": [{"measurement": "% Injury", "setting": "[1]; [8]", "value": 100, "unit": "%"}, {"measurement": "% Injury", "setting": "[1]; [9]", "value": 100, "unit": "%"}, {"measurement": "% Injury", "setting": "[2]; [8]", "value": 77, "unit": "%"}, {"measurement": "% Injury", "setting": "[2]; [9]", "value": 78, "unit": "%"}, {"measurement": "% Injury", "setting": "SYHT0H2 soybeans [3]; Sequestrene 138Fe 0 g/ha", "value": 15, "unit": "%"}, {"measurement": "% Injury", "setting": "SYHT0H2 soybeans [3]; Sequestrene 138Fe 140 g/ha tank mix", "value": 13, "unit": "%"}, {"measurement": "% Injury", "setting": "SYHT0H2 soybeans [3]; Sequestrene 138Fe 280 g/ha tank mix", "value": 2, "unit": "%"}, {"measurement": "% Injury", "setting": "SYHT0H2 soybeans [3]; Sequestrene 138Fe 560 g/ha tank mix", "value": 1, "unit": "%"}, {"measurement": "% Injury", "setting": "SYHT0H2 soybeans [3]; Sequestrene 138Fe 1120 g/ha tank mix", "value": 0, "unit": "%"}, {"measurement": "% Injury", "setting": "SYHT0H2 soybeans [3]; Sequestrene 138Fe 2240 g/ha tank mix", "value": 0, "unit": "%"}, {"measurement": "% Injury", "setting": "SYHT04R soybeans; Sequestrene 138Fe 0 g/ha", "value": 23, "unit": "%"}, {"measurement": "% Injury", "setting": "SYHT04R soybeans; Sequestrene 138Fe 1120 g/ha", "value": 3, "unit": "%"}, {"measurement": "% Injury", "setting": "SYHT0H2 soybeans [4]", "value": 17, "unit": "%"}, {"measurement": "% herbicide damage", "setting": "[5]; Trt 13: mesotrione 400 gai/ha alone, 3DAA", "value": "55% and 45% and 50% and 60% and 40%"}, {"measurement": "% herbicide damage", "setting": "[5]; Trt 13: mesotrione 400 gai/ha alone, 7DAA", "value": "70% and 65%"}, {"measurement": "% herbicide damage", "setting": "[5]; Trt 13: mesotrione 400 gai/ha alone, 14DAA", "value": "65% and 45% and 50%"}, {"measurement": "% herbicide damage", "setting": "[5]; Trt 14: mesotrione 500 gai/ha alone, 3DAA", "value": "55% and 60% and 65%"}, {"measurement": "% herbicide damage", "setting": "[5]; Trt 14: mesotrione 500 gai/ha alone, 7DAA", "value": "75% and 70%"}, {"measurement": "% herbicide damage", "setting": "[5]; Trt 14: mesotrione 500 gai/ha alone, 14DAA", "value": "70% and 65% and 60%"}, {"measurement": "% herbicide damage", "setting": "[5]; Trt 15: mesotrione 600 gai/ha alone, 7DAA", "value": "55% and 75% and 78%"}, {"measurement": "% herbicide damage", "setting": "[5]; Trt 15: mesotrione 600 gai/ha alone, 14DAA", "value": "40% and 65% and 50% and 70%"}, {"measurement": "% herbicide damage", "setting": "[5]; Trt 16: mesotrione 400 gai/ha + Sequestrene 138 1000 g/ha, 3DAA", "value": "0% and 5% and 10%"}, {"measurement": "% herbicide damage", "setting": "[5]; Trt 16: mesotrione 400 gai/ha + Sequestrene 138 1000 g/ha, 7DAA", "value": "15% and 10%"}, {"measurement": "% herbicide damage", "setting": "[5]; Trt 16: mesotrione 400 gai/ha + Sequestrene 138 1000 g/ha, 14DAA", "value": "15% and 10% and 5%"}, {"measurement": "% herbicide damage", "setting": "[6]; Trt 2: mesotrione 100 gai/ha alone, 3DAA", "value": "35% and 25% and 20%"}, {"measurement": "% herbicide damage", "setting": "[6]; Trt 2: mesotrione 100 gai/ha alone, 7DAA", "value": "55% and 30% and 35%"}, {"measurement": "% herbicide damage", "setting": "[6]; Trt 2: mesotrione 100 gai/ha alone, 14DAA", "value": "40% and 25% and 20% and 30%"}, {"measurement": "% herbicide damage", "setting": "[6]; Trt 4: mesotrione 50 gai/ha + Sequestrene 138 1000 g/ha, 7DAA", "value": 0, "unit": "%"}, {"measurement": "% herbicide damage", "setting": "[6]; Trt 4: mesotrione 50 gai/ha + Sequestrene 138 1000 g/ha, 14DAA", "value": 0, "unit": "%"}, {"measurement": "% herbicide damage", "setting": "[6]; Trt 5: mesotrione 100 gai/ha + Sequestrene 138 1000 g/ha, 3DAA", "value": "10% and 5%"}, {"measurement": "% herbicide damage", "setting": "[6]; Trt 5: mesotrione 100 gai/ha + Sequestrene 138 1000 g/ha, 7DAA", "value": 0, "unit": "%"}, {"measurement": "% herbicide damage", "setting": "[6]; Trt 6: mesotrione 150 gai/ha + Sequestrene 138 1000 g/ha, 3DAA", "value": "5% and 15% and 10%"}, {"measurement": "% herbicide damage", "setting": "[6]; Trt 6: mesotrione 150 gai/ha + Sequestrene 138 1000 g/ha, 14DAA", "value": "5% and 0%"}, {"measurement": "% herbicide damage", "setting": "[7]; Trt 7: mesotrione 200 gai/ha alone, 3DAA", "value": "10% and 5%"}, {"measurement": "% herbicide damage", "setting": "[7]; Trt 7: mesotrione 200 gai/ha alone, 7DAA", "value": "10% and 0%"}, {"measurement": "% herbicide damage", "setting": "[7]; Trt 7: mesotrione 200 gai/ha alone, 14DAA", "value": "10% and 0%"}, {"measurement": "% herbicide damage", "setting": "[7]; Trt 8: mesotrione 300 gai/ha alone, 3DAA", "value": "15% and 10%"}, {"measurement": "% herbicide damage", "setting": "[7]; Trt 9: mesotrione 400 gai/ha alone, 3DAA", "value": "20% and 15%"}, {"measurement": "% herbicide damage", "setting": "[7]; Trt 9: mesotrione 400 gai/ha alone, 7DAA", "value": "20% and 25%"}, {"measurement": "% herbicide damage", "setting": "[7]; Trt 10: mesotrione 200 gai/ha + Sequestrene 138 1000 g/ha, 3DAA", "value": "0% and 5%"}, {"measurement": "% herbicide damage", "setting": "[7]; Trt 10: mesotrione 200 gai/ha + Sequestrene 138 1000 g/ha, 7DAA", "value": 0, "unit": "%"}, {"measurement": "% herbicide damage", "setting": "[7]; Trt 11: mesotrione 300 gai/ha + Sequestrene 138 1000 g/ha, 3DAA", "value": "0% and 5% and 10%"}, {"measurement": "% herbicide damage", "setting": "[7]; Trt 11: mesotrione 300 gai/ha + Sequestrene 138 1000 g/ha, 7DAA", "value": "10% and 5% and 0%"}, {"measurement": "% herbicide damage", "setting": "[7]; Trt 12: mesotrione 400 gai/ha + Sequestrene 138 1000 g/ha, 3DAA", "value": "10% and 0%"}, {"measurement": "% herbicide damage", "setting": "[7]; Trt 12: mesotrione 400 gai/ha + Sequestrene 138 1000 g/ha, 7DAA", "value": "5% and 0%"}, {"measurement": "% herbicide damage", "setting": "[7]; Trt 12: mesotrione 400 gai/ha + Sequestrene 138 1000 g/ha, 14DAA", "value": "10% and 5%"}]}
